Columns and labels:
Assay in all cases: Test D controlled growth environment herbicide test, pre- and postemergence
Type in all cases: in vivo
[1] = test system: blackgrass (Alopecurus myosuroides)
In short: (§1)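 Pre-emergence: seeds sown in silt loam soil were sprayed with compound in a non-phytotoxic solvent mix containing surfactant. Post-emergence: plants at 2 to 18 cm (1- to 4-leaf stage) in peat moss/vermiculite medium got the same formulation. Visual 0–100 rating versus controls after 14 to 21 d.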

[2] = test system: bromegrass, downy (downy bromegrass, Bromus tectorum)
In short: as §1

[3] = test system: buckwheat, wild (wild buckwheat, Polygonum convolvulus)
In short: as §1

[4] = test system: chamomile (scentless chamomile, Matricaria inodora)
In short: as §1

[5] = test system: deadnettle (henbit deadnettle, Lamium amplexicaule)
In short: as §1

[6] = test system: foxtail, green (green foxtail, Setaria viridis)
In short: as §1

[7] = test system: galium (catchweed bedstraw, Galium aparine)
In short: as §1

[8] = test system: kochia (Kochia scoparia)
In short: as §1

[9] = test system: mustard, wild (wild mustard, Sinapis arvensis)
In short: as §1

[10] = test system: oilseed rape (Brassica napus)
In short: as §1

[11] = test system: pigweed (Amaranthus retroflexus)
In short: as §1

[12] = test system: ryegrass, Italian (Italian ryegrass, Lolium multiflorum)
In short: as §1

[13] = test system: speedwell (bird's-eye speedwell, Veronica persica)
In short: as §1

[14] = test system: windgrass (Apera spica-venti)
In short: as §1

[15] = Postemergence, 31 g ai/ha, scale 0 to 100 (0 no effect, 100 complete control)
[16] = Postemergence, 125 g ai/ha, visual rating on scale 0 (no effect) to 100 (complete control), 14 to 21 d
[17] = Postemergence, 250 g ai/ha, scale 0 to 100 (0 no effect, 100 complete control)
[18] = Preemergence, 62 g ai/ha, scale 0 to 100 (0 no effect, 100 complete control)
[19] = Preemergence, 125 g ai/ha, scale 0 to 100 (0 no effect, 100 complete control)
[20] = Preemergence, 250 g ai/ha, scale 0 to 100, 0 no effect, 100 complete control
[21] = postemergence, 62 g ai/ha, scale 0 to 100, 0 no effect, 100 complete control

CCc1sc2c(C)cc(C)cc2c1-c1c(O)c(C)nn(C)c1=O [Compound 57]
Blackgrass plant response rating [1, 15]: 15
Plant response rating, Blackgrass [1, 16]: 55
Plant response rating, Blackgrass [1, 17]: 75
Plant response rating (scale of 0 to 100), Blackgrass ([1]; Preemergence, 31 g ai/ha): 25
Plant response rating, Blackgrass [1, 18]: 35
Plant response rating, Blackgrass [1, 19]: 70
Plant response rating, Blackgrass [1, 20]: 80
Plant response rating, Blackgrass [1, 21]: 45
Bromegrass, Downy plant response rating [2, 15]: 15
Plant response rating, Bromegrass, Downy [2, 16]: 25
Plant response rating, Bromegrass, Downy [2, 17]: 35
Plant response rating (scale of 0 to 100), Bromegrass, Downy ([2]; Preemergence, 31 g ai/ha): 0
Plant response rating, Bromegrass, Downy [2, 18]: 5
Plant response rating, Bromegrass, Downy [2, 19]: 25
Plant response rating, Bromegrass, Downy [2, 20]: 30
Plant response rating, Bromegrass, Downy [2, 21]: 20
Buckwheat, Wild plant response rating [3, 15]: 80
Plant response rating, Buckwheat, Wild [3, 16]: 85
Plant response rating, Buckwheat, Wild [3, 17]: 100
Plant response rating (scale of 0 to 100), Buckwheat, Wild ([3]; Preemergence, 31 g ai/ha): 0
Plant response rating, Buckwheat, Wild [3, 18]: 10
Plant response rating, Buckwheat, Wild [3, 19]: 10
Plant response rating, Buckwheat, Wild [3, 20]: 100
Plant response rating, Buckwheat, Wild [3, 21]: 85
Chamomile plant response rating [4, 15]: 100
Plant response rating, Chamomile [4, 16]: 100
Plant response rating, Chamomile [4, 17]: 100
Plant response rating, Chamomile [4, 21]: 100
Deadnettle plant response rating [5, 15]: 70
Plant response rating, Deadnettle [5, 16]: 85
Plant response rating, Deadnettle [5, 17]: 100
Plant response rating (scale of 0 to 100), Deadnettle ([5]; Preemergence, 31 g ai/ha): 0
Plant response rating, Deadnettle [5, 18]: 20
Plant response rating, Deadnettle [5, 19]: 25
Plant response rating, Deadnettle [5, 20]: 45
Plant response rating, Deadnettle [5, 21]: 90
Foxtail, Green plant response rating [6, 15]: 75
Plant response rating, Foxtail, Green [6, 16]: 75
Plant response rating, Foxtail, Green [6, 17]: 90
Plant response rating (scale of 0 to 100), Foxtail, Green ([6]; Preemergence, 31 g ai/ha): 10
Plant response rating, Foxtail, Green [6, 18]: 70
Plant response rating, Foxtail, Green [6, 19]: 100
Plant response rating, Foxtail, Green [6, 20]: 100
Plant response rating, Foxtail, Green [6, 21]: 75
Galium plant response rating [7, 15]: 90
Plant response rating, Galium [7, 16]: 90
Plant response rating, Galium [7, 17]: 98
Plant response rating (scale of 0 to 100), Galium ([7]; Preemergence, 31 g ai/ha): 85
Plant response rating, Galium [7, 18]: 100
Plant response rating, Galium [7, 19]: 100
Plant response rating, Galium [7, 20]: 100
Plant response rating, Galium [7, 21]: 90
Kochia plant response rating [8, 15]: 40
Plant response rating, Kochia [8, 16]: 65
Plant response rating, Kochia [8, 17]: 75
Plant response rating (scale of 0 to 100), Kochia ([8]; Preemergence, 31 g ai/ha): 10
Plant response rating, Kochia [8, 18]: 10
Plant response rating, Kochia [8, 19]: 35
Plant response rating, Kochia [8, 20]: 100
Plant response rating, Kochia [8, 21]: 55
Mustard, Wild plant response rating [9, 15]: 30
Plant response rating, Mustard, Wild [9, 16]: 30
Plant response rating, Mustard, Wild [9, 17]: 40
Plant response rating (scale of 0 to 100), Mustard, Wild ([9]; Preemergence, 31 g ai/ha): 0
Plant response rating, Mustard, Wild [9, 18]: 25
Plant response rating, Mustard, Wild [9, 19]: 25
Plant response rating, Mustard, Wild [9, 20]: 30
Plant response rating, Mustard, Wild [9, 21]: 30
Oilseed Rape plant response rating [10, 15]: 20
Plant response rating, Oilseed Rape [10, 16]: 65
Plant response rating, Oilseed Rape [10, 17]: 65
Plant response rating (scale of 0 to 100), Oilseed Rape ([10]; Preemergence, 31 g ai/ha): 0
Plant response rating, Oilseed Rape [10, 18]: 0
Plant response rating, Oilseed Rape [10, 19]: 0
Plant response rating, Oilseed Rape [10, 20]: 25
Plant response rating, Oilseed Rape [10, 21]: 25
Pigweed plant response rating [11, 15]: 85
Plant response rating, Pigweed [11, 16]: 100
Plant response rating, Pigweed [11, 17]: 100
Plant response rating (scale of 0 to 100), Pigweed ([11]; Preemergence, 31 g ai/ha): 70
Plant response rating, Pigweed [11, 18]: 75
Plant response rating, Pigweed [11, 19]: 98
Plant response rating, Pigweed [11, 20]: 100
Plant response rating, Pigweed [11, 21]: 85
Ryegrass, Italian plant response rating [12, 15]: 25
Plant response rating, Ryegrass, Italian [12, 16]: 75
Plant response rating, Ryegrass, Italian [12, 17]: 85
Plant response rating (scale of 0 to 100), Ryegrass, Italian ([12]; Preemergence, 31 g ai/ha): 55
Plant response rating, Ryegrass, Italian [12, 18]: 75
Plant response rating, Ryegrass, Italian [12, 19]: 80
Plant response rating, Ryegrass, Italian [12, 20]: 95
Plant response rating, Ryegrass, Italian [12, 21]: 50
Speedwell plant response rating [13, 15]: 100
Plant response rating, Speedwell [13, 16]: 25
Plant response rating, Speedwell [13, 17]: 100
Plant response rating (scale of 0 to 100), Speedwell ([13]; Preemergence, 31 g ai/ha): 25
Plant response rating, Speedwell [13, 18]: 90
Plant response rating, Speedwell [13, 19]: 100
Plant response rating, Speedwell [13, 20]: 100
Plant response rating, Speedwell [13, 21]: 15
Windgrass plant response rating [14, 15]: 10
Plant response rating, Windgrass [14, 16]: 10
Plant response rating, Windgrass [14, 17]: 15
Plant response rating (scale of 0 to 100), Windgrass ([14]; Preemergence, 31 g ai/ha): 20
Plant response rating, Windgrass [14, 18]: 35
Plant response rating, Windgrass [14, 19]: 65
Plant response rating, Windgrass [14, 20]: 80
Plant response rating, Windgrass [14, 21]: 10
